Converted amounts (≈) assume the structure as drawn.
Columns and labels:
Type in all cases: functional
[1] = tested on: Streptococcus pyogenes; assay: Antibacterial activity against Streptococcus pyogenes ATCC 19615 after 24 hrs by agar dilution method; conditions: ATCC 19615, 24 h
[2] = tested on: Enterococcus faecium; assay: Antibacterial activity against vancomycin-resistant Enterococcus faecium 6A after 24 hrs by agar dilution method
[3] = tested on: Staphylococcus aureus; assay: Antibacterial activity against methicillin-resistant Staphylococcus aureus 562 infected orally dosed Swiss albino mouse after 7 days; conditions: po, 168 h
[4] = tested on: Staphylococcus aureus; assay: Antibacterial activity against methicillin-resistant Staphylococcus aureus 562 after 24 hrs by agar dilution method
[5] = tested on: Staphylococcus aureus; assay: Antibacterial activity against Staphylococcus aureus ATCC 25923 after 24 hrs by agar dilution method; conditions: ATCC 25923, 24 h
[6] = tested on: Streptococcus pneumoniae; assay: Antibacterial activity against Streptococcus pneumoniae ATCC 6303 after 24 hrs by agar dilution method; conditions: ATCC 6303, 24 h
[7] = tested on: Staphylococcus aureus; assay: Antibacterial activity against methicillin-resistant Staphylococcus aureus 33 after 24 hrs by agar dilution method
[8] = tested on: Enterococcus faecalis; assay: Antibacterial activity against Enterococcus faecalis ATCC 29212 after 24 hrs by agar dilution method; conditions: ATCC 29212, 24 h
[9] = tested on: Mycobacterium tuberculosis; assay: Antibacterial activity against sensitive Mycobacterium tuberculosis
[10] = tested on: Haemophilus influenzae; assay: Antibacterial activity against Haemophilus influenzae
[11] = tested on: Moraxella catarrhalis; assay: Antibacterial activity against Moraxella catarrhalis
[12] = tested on: Staphylococcus aureus; assay: Antibacterial activity against methicillin-resistant Staphylococcus aureus 562 infected sc dosed Swiss albino mouse after 7 days; conditions: 168 h

SMILES | MIC [1] [µg/mL] | MIC [2] [µg/mL] | ED50 [3] [mg/kg] | MIC [4] [µg/mL] | MIC [5] [µg/mL] | MIC [6] [µg/mL] | MIC [7] [µg/mL] | MIC [8] [µg/mL] | MIC90 [9] [µg/mL] | MIC50 [10] [µg/mL] | MIC50 [11] [µg/mL] | ED50 [12] [mg/kg]
CC(=O)NC[C@H]1CN(c2ccc(N3CCOCC3)c(F)c2)C(=O)O1 [LINEZOLID] | 2 (≈ 5.93 µM) | 2 (≈ 5.93 µM) | 5.6 | – | – | – | – | – | – | – | – | –
CC(=O)NC[C@H]1CN(c2ccc(N3CCN(c4ccc(C#N)s4)CC3)c(F)c2)C(=O)O1 | 0.25 (≈ 0.564 µM) | – | – | 2 (≈ 4.51 µM) | 4 (≈ 9.02 µM) | 0.5 (≈ 1.13 µM) | 2 (≈ 4.51 µM) | 2 (≈ 4.51 µM) | – | – | – | –
CC(=O)NC[C@H]1CN(c2ccc(N3CCN(c4ccc(C(C)=O)s4)CC3)c(F)c2)C(=O)O1 | > 16 | > 16 | – | > 16 | > 16 | > 16 | > 16 | > 16 | – | – | – | –
CC(=O)NC[C@H]1CN(c2ccc(N3CCN(C(=O)c4ccc([N+](=O)[O-])s4)CC3)c(F)c2)C(=O)O1 | 0.125 (≈ 0.254 µM) | 0.5 (≈ 1.02 µM) | 9.77 | 0.06 (≈ 0.122 µM) | 0.125 (≈ 0.254 µM) | 0.5 (≈ 1.02 µM) | 0.06 (≈ 0.122 µM) | 0.5 (≈ 1.02 µM) | – | – | – | –
CC(=O)NC[C@H]1CN(c2ccc(N3CCN(C(=O)c4ccc([N+](=O)[O-])o4)CC3)c(F)c2)C(=O)O1 | 2 (≈ 4.21 µM) | 1 (≈ 2.1 µM) | 8.24 | – | 1 (≈ 2.1 µM) | 2 (≈ 4.21 µM) | 0.5 (≈ 1.05 µM) | 1 (≈ 2.1 µM) | – | – | – | –
CC(=O)NC[C@H]1CN(c2cc(F)c(N3CCN(c4ccc([N+](=O)[O-])s4)CC3)c(F)c2)C(=O)O1 | 0.5 (≈ 1.04 µM) | 0.25 (≈ 0.519 µM) | > 25 | 0.25 (≈ 0.519 µM) | 0.25 (≈ 0.519 µM) | 0.5 (≈ 1.04 µM) | 0.25 (≈ 0.519 µM) | 0.25 (≈ 0.519 µM) | – | – | – | –
CC(=O)NC[C@H]1CN(c2ccc(N3CCN(c4ccc([N+](=O)[O-])s4)CC3)c(F)c2)C(=O)O1 | 0.125 (≈ 0.27 µM) | 0.25 (≈ 0.539 µM) | 11.2 | 0.25 (≈ 0.539 µM) | 0.25 (≈ 0.539 µM) | 0.125 (≈ 0.27 µM) | 0.25 (≈ 0.539 µM) | 0.25 (≈ 0.539 µM) | 0.25 (≈ 0.539 µM) | 8 (≈ 17.3 µM) | 2 (≈ 4.32 µM) | –
CC(=O)NC[C@H]1CN(c2ccc(N3CCN(C(C)c4ccc([N+](=O)[O-])o4)CC3)c(F)c2)C(=O)O1 (stereo partly drawn) | 0.06 (≈ 0.126 µM) | 0.25 (≈ 0.526 µM) | 9.1 | 1 (≈ 2.1 µM) | 1 (≈ 2.1 µM) | 1 (≈ 2.1 µM) | 1 (≈ 2.1 µM) | 0.125 (≈ 0.263 µM) | – | – | – | –
CC(=O)NC[C@H]1CN(c2ccc(N3CCN(c4ccc(C=O)s4)CC3)c(F)c2)C(=O)O1 | 0.5 (≈ 1.12 µM) | 1 (≈ 2.24 µM) | > 25 | 0.5 (≈ 1.12 µM) | 1 (≈ 2.24 µM) | 0.5 (≈ 1.12 µM) | 0.5 (≈ 1.12 µM) | < 0.25 | – | – | – | –
CN[C@H](CC(C)C)C(=O)N[C@H]1C(=O)N[C@@H](CC(N)=O)C(=O)N[C@H]2C(=O)N[C@H]3C(=O)N[C@H](C(=O)N[C@H](C(=O)O)c4cc(O)cc(O)c4-c4cc3ccc4O)[C@H](O)c3ccc(c(Cl)c3)Oc3cc2cc(c3O[C@@H]2O[C@H](CO)[C@@H](O)[C@H](O)[C@H]2O[C@H]2C[C@](C)(N)[C@H](O)[C@H](C)O2)Oc2ccc(cc2Cl)[C@H]1O [VANCOMYCIN] | – | > 16 | – | – | – | 0.5 (≈ 0.345 µM) | – | – | – | – | – | 8.8
CC(=O)NC[C@H]1CN(c2ccc(N3CCN(c4ccc([N+](=O)[O-])o4)CC3)c(F)c2)C(=O)O1 | 4 (≈ 8.94 µM) | 8 (≈ 17.9 µM) | – | 16 (≈ 35.8 µM) | 16 (≈ 35.8 µM) | 4 (≈ 8.94 µM) | 8 (≈ 17.9 µM) | 8 (≈ 17.9 µM) | – | – | – | –
CC(=O)NC[C@H]1CN(c2ccc(N3CCN(C(=O)/C=C/c4ccc([N+](=O)[O-])s4)CC3)c(F)c2)C(=O)O1 | 0.5 (≈ 0.966 µM) | 0.5 (≈ 0.966 µM) | > 25 | 1 (≈ 1.93 µM) | 0.5 (≈ 0.966 µM) | 1 (≈ 1.93 µM) | 0.5 (≈ 0.966 µM) | 1 (≈ 1.93 µM) | – | – | – | –
CC(=O)NC[C@H]1CN(c2ccc(N3CCN(C(C)c4ccc([N+](=O)[O-])s4)CC3)c(F)c2)C(=O)O1 (stereo partly drawn) | 2 (≈ 4.07 µM) | 0.5 (≈ 1.02 µM) | > 25 | 0.5 (≈ 1.02 µM) | 0.5 (≈ 1.02 µM) | 2 (≈ 4.07 µM) | 0.5 (≈ 1.02 µM) | 0.5 (≈ 1.02 µM) | – | – | – | –
CC(=O)NC[C@H]1CN(c2ccc(N3CCN(c4ccc([N+](=O)[O-])s4)CC3)cc2)C(=O)O1 | 0.5 (≈ 1.12 µM) | 1 (≈ 2.24 µM) | – | 1 (≈ 2.24 µM) | 2 (≈ 4.49 µM) | 0.5 (≈ 1.12 µM) | 1 (≈ 2.24 µM) | 1 (≈ 2.24 µM) | – | – | – | –
CC(=O)NC[C@H]1CN(c2ccc(N3CCN(Cc4ccc([N+](=O)[O-])o4)CC3)c(F)c2)C(=O)O1.Cl [RANBEZOLID CHLORIDE] | 0.125 | 2 | 4.33 | 1 | 1 | 0.125 | 2 | 2 | – | – | – | –
CC(=O)NC[C@H]1CN(c2ccc(N3CCN(Cc4ccc([N+](=O)[O-])s4)CC3)c(F)c2)C(=O)O1 | 1 (≈ 2.09 µM) | 8 (≈ 16.8 µM) | > 25 | 8 (≈ 16.8 µM) | 8 (≈ 16.8 µM) | 8 (≈ 16.8 µM) | 8 (≈ 16.8 µM) | 8 (≈ 16.8 µM) | – | – | – | –
CC(=O)NC[C@H]1CN(c2ccc(N3CCN(C(=O)/C=C/c4ccc([N+](=O)[O-])o4)CC3)c(F)c2)C(=O)O1 | < 0.125 | < 0.125 | > 25 | 0.25 (≈ 0.499 µM) | 0.5 (≈ 0.997 µM) | 0.5 (≈ 0.997 µM) | 0.25 (≈ 0.499 µM) | 0.5 (≈ 0.997 µM) | – | – | – | –

Source: ChEMBL document CHEMBL1138308, “Synthesis and antibacterial activity of potent heterocyclic oxazolidinones and the identification of RBx 8700” (2007)
